Results from US20250368628A1, “METHODS AND COMPOUNDS FOR MODULATING INHERITED GENETIC DISEASES” (Design Therapeutics, Inc., priority 2022, published 2025).

Each compound was assayed on Myotonic Dystrophy 1 affected patient fibroblasts (Coriel GM04602; 1600 CTG repeats) (assay: DM1 foci reduction assay (EC50 assay; CAG10-Cy3 FISH, foci per nucleus)). Settings: Homo sapiens, Fibroblast; DM1 patient fibroblasts, 48 h treatment, foci per nucleus; read-out: DM1 EC50, 48 h.
Type: cell-based
Procedure, shortened: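 Foci per nucleus counted by 20× imaging of 4 areas per well, after overnight FISH with 5 nM CAG10-Cy3 and DAPI staining of fixed, permeabilized cells. DM1 fibroblasts (GM04602, 1600 CTG) were dosed 48 h at 37 °C, 8 points, 3-fold dilutions, 3 μM top concentration.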

| Structure (SMILES) | EC50 |
| --- | --- |
| CCN(CC)CCCC[C@H](NC(=O)c1ccccc1)C(=O)NCCOCCOCCOCCOCCOCCNC(=O)c1nc(NC(=O)c2cc(NC(=O)CCNC(=O)c3nc(NC(=O)CCCNC(=O)c4cc(NC(=O)c5nc(NC(=O)CCNC(=O)c6cc(NC(=O)c7nccn7C)cn6C)cn5C)cn4C)cn3C)cn2C)cn1C [Compound B-219] | 500 to 1000 nM |
| CCN(CC)CCCC[C@H](NC(=O)c1cccc(C(=O)OC(C)(C)C)c1)C(=O)NCCOCCOCCOCCOCCOCCNC(=O)c1nc(NC(=O)c2cc(NC(=O)CCNC(=O)c3nc(NC(=O)CCCNC(=O)c4cc(NC(=O)c5nc(NC(=O)CCNC(=O)c6cc(NC(=O)c7nccn7C)cn6C)cn5C)cn4C)cn3C)cn2C)cn1C [Compound B-344] | 500 to 1000 nM |
| COCCOCCOCCOCCN(CCCCCn1cc(NC(=O)c2nc(NC(=O)CCNC(=O)c3cc(NC(=O)c4nccn4C)cn3C)cn2C)cc1C(=O)NCCCC(=O)Nc1cn(C)c(C(=O)NCCC(=O)Nc2cc(C(=O)Nc3cn(C)c(C(=O)NCCC(=O)N4CCC(N5CCNCC5)CC4)n3)n(C)c2)n1)CCOCCOCCOCCOC [Compound B-162] | > 1000 nM |
| CCCNC(=O)CCNC(=O)c1nc(NC(=O)c2cc(NC(=O)CCNC(=O)c3nc(NC(=O)CCCNC(=O)c4cc(NC(=O)c5nc(NC(=O)CCNC(=O)c6cc(NC(=O)c7nccn7C)cn6CCCCCCN)cn5C)cn4C)cn3C)cn2C)cn1C [Compound B-61] | > 1000 nM |
| CN1CCC(CN2CCN(C(=O)CCNC(=O)c3nc(NC(=O)c4cc(NC(=O)CCNC(=O)c5nc(NC(=O)CCCNC(=O)c6cc(NC(=O)c7nc(NC(=O)CCNC(=O)c8cc(NC(=O)c9nccn9C)cn8C)cn7C)cn6C)cn5C)cn4C)cn3C)CC2)CC1 [Compound B-116] | > 1000 nM |
| CCN(CC)CCCC[C@H](NC(C)=O)C(=O)NCCOCCOCCOCCNC(=O)CCNC(=O)c1nc(NC(=O)c2cc(NC(=O)CCNC(=O)c3nc(NC(=O)CCCNC(=O)c4cc(NC(=O)c5nc(NC(=O)CCNC(=O)c6cc(NC(=O)c7nccn7C)cn6C)cn5C)cn4C)cn3C)cn2C)cn1C [Compound B-86] | > 1000 nM |
| Cn1cnc(NC(=O)c2cc(NC(=O)CCNC(=O)c3nc(NC(=O)CCCNC(=O)c4cc(NC(=O)c5nc(NC(=O)CCNC(=O)c6cc(NC(=O)c7nccn7C)cn6C)cn5C)cn4CCCCCCN=[N+]=[N-])cn3C)cn2C)c1 [Compound B-252] | > 1000 nM |
| Cn1cc(NC(=O)c2nc(NC(=O)CCNC(=O)c3cc(NC(=O)c4nccn4C)cn3C)cn2C)cc1C(=O)NCCCC(=O)Nc1cn(C)c(C(=O)NCCC(=O)Nc2cc(C(=O)Nc3cn(C)c(C(=O)NCCC(=O)N4CCC(O)(C#CC5CCN(C(=O)OC(C)(C)C)CC5)CC4)n3)n(C)c2)n1 [Compound B-195] | > 1000 nM |
| CCCNC(=O)c1nc(NC(=O)c2cc(NC(=O)CCNC(=O)c3nc(NC(=O)CCCNC(=O)c4cc(NC(=O)c5nc(NC(=O)CCNC(=O)c6cc(NC(=O)c7nccn7C)cn6C)cn5C)cn4CCCCCCN=[N+]=[N-])cn3C)cn2C)cn1C [Compound B-231] | 100 to 500 nM |
| Cn1cc(NC(=O)c2nc(NC(=O)CCNC(=O)c3cc(NC(=O)c4nccn4C)cn3C)cn2C)cc1C(=O)NCCCC(=O)Nc1cn(C)c(C(=O)NCCC(=O)Nc2cc(C(=O)Nc3cn(C)c(C(=O)NCCCN4CCC(C#CC#CC5CCNCC5)CC4)n3)n(C)c2)n1 [Compound B-250] | 100 to 500 nM |
| CCCCCCN1CCC(C#CC#CC2CCN(CCCCCNC(=O)CCNC(=O)c3nc(NC(=O)c4cc(NC(=O)CCNC(=O)c5nc(NC(=O)CCCNC(=O)c6cc(NC(=O)c7nc(NC(=O)CCNC(=O)c8cc(NC(=O)c9nccn9C)cn8C)cn7C)cn6C)cn5C)cn4C)cn3C)CC2)CC1 [Compound B-183] | > 1000 nM |
| CC(C)CCC(=O)N1CCC(C#CC#CCNC(=O)CCNC(=O)c2nc(NC(=O)c3cc(NC(=O)CCNC(=O)c4nc(NC(=O)CCCNC(=O)c5cc(NC(=O)c6nc(NC(=O)CCNC(=O)c7cc(NC(=O)c8nccn8C)cn7C)cn6C)cn5C)cn4C)cn3C)cn2C)CC1 [Compound B-190] | > 1000 nM |
| Cn1cc(NC(=O)c2nc(NC(=O)CCNC(=O)c3cc(NC(=O)c4nccn4C)cn3C)cn2C)cc1C(=O)NCCCC(=O)Nc1cn(C)c(C(=O)NCCC(=O)Nc2cc(C(=O)Nc3cn(C)c(C(=O)NCCC(=O)NCCO)n3)n(C)c2)n1 [Compound B-51] | 100 to 500 nM |
| CCCCCCCCCCNC(=O)CCNC(=O)c1nc(NC(=O)c2cc(NC(=O)CCNC(=O)c3nc(NC(=O)CCCNC(=O)c4cc(NC(=O)c5nc(NC(=O)CCNC(=O)c6cc(NC(=O)c7nccn7C)cn6C)cn5C)cn4C)cn3C)cn2C)cn1C [Compound B-40] | < 100 nM |
| CN1CCN(CC2CCN(C(=O)CCNC(=O)c3nc(NC(=O)c4cc(NC(=O)CCNC(=O)c5nc(NC(=O)CCCNC(=O)c6cc(NC(=O)c7nc(NC(=O)CCNC(=O)c8cc(NC(=O)c9nccn9C)cn8C)cn7C)cn6C)cn5C)cn4C)cn3C)CC2)CC1 [Compound B-129] | 100 to 500 nM |
| CN(CCCNC(=O)OC(C)(C)C)CCCNC(=O)c1cc(NC(=O)CCNC(=O)c2nc(NC(=O)CCCNC(=O)c3cc(NC(=O)c4nc(NC(=O)CCNC(=O)c5cc(NC(=O)c6nccn6C)cn5C)cn4C)cn3CCCCCCN=[N+]=[N-])cn2C)cn1C [Compound B-357] | > 1000 nM |

| Structure (SMILES) | EC50 |
| --- | --- |
| Cn1cc(NC(=O)c2nc(NC(=O)CCNC(=O)c3cc(NC(=O)c4nccn4C)cn3C)cn2C)cc1C(=O)NCCCC(=O)Nc1cn(C)c(C(=O)NCCC(=O)Nc2cc(C(=O)Nc3cn(C)c(C(=O)NCCC(=O)NCC#CC#CC4CCN(C(=O)c5ccc(C(C)(C)C)cc5)CC4)n3)n(C)c2)n1 [Compound B-188] | > 1000 nM |
| Cn1cc(NC(=O)c2nc(NC(=O)CCNC(=O)c3cc(NC(=O)c4nccn4C)cn3C)cn2C)cc1C(=O)NCCCC(=O)Nc1cn(C)c(C(=O)NCCC(=O)Nc2cc(C(=O)Nc3cn(C)c(C(=O)NCCCCCCCNC(=O)c4cccc(C(=O)OC(C)(C)C)c4)n3)n(C)c2)n1 [Compound B-338] | > 1000 nM |
| CCN(CC)CCCC[C@@H](NC(C)=O)C(=O)Nc1ccc(OCCOCCOCCOCCOCCOCCOCCNC(=O)CCNC(=O)c2nc(NC(=O)c3cc(NC(=O)CCNC(=O)c4nc(NC(=O)CCCNC(=O)c5cc(NC(=O)c6nc(NC(=O)CCNC(=O)c7cc(NC(=O)c8nccn8C)cn7C)cn6C)cn5C)cn4C)cn3C)cn2C)cc1 [Compound B-145] | 500 to 1000 nM |
| CCN(CC)CCCC[C@H](NC(=O)c1cccc(C(=O)OC(C)(C)C)c1)C(=O)NCCOCCOCCOCCNC(=O)CCNC(=O)c1nc(NC(=O)c2cc(NC(=O)CCNC(=O)c3nc(NC(=O)CCCNC(=O)c4cc(NC(=O)c5nc(NC(=O)CCNC(=O)c6cc(NC(=O)c7nccn7C)cn6C)cn5C)cn4C)cn3C)cn2C)cn1C [Compound B-355] | 100 to 500 nM |
| CCN(CC)CCCC[C@H](NC(=O)c1ccccc1)C(=O)NCCOCCOCCOCCOCCOCCNC(=O)CCNC(=O)c1nc(NC(=O)c2cc(NC(=O)CCNC(=O)c3nc(NC(=O)CCCNC(=O)c4cc(NC(=O)c5nc(NC(=O)CCNC(=O)c6cc(NC(=O)c7nccn7C)cn6C)cn5C)cn4C)cn3C)cn2C)cn1C [Compound B-91] | 500 to 1000 nM |
| Cn1cc(NC(=O)c2nc(NC(=O)CCNC(=O)c3cc(NC(=O)c4nccn4C)cn3C)cn2C)cc1C(=O)NCCCC(=O)Nc1cn(C)c(C(=O)NCCC(=O)Nc2cc(C(=O)Nc3cn(C)c(C(=O)NCCCCCCCNC(=O)c4cccc(C(=O)O)c4)n3)n(C)c2)n1 [Compound B-213] | > 1000 nM |
| Cn1cc(NC(=O)c2nc(NC(=O)CCNC(=O)c3cc(NC(=O)c4nccn4C)cn3C)cn2C)cc1C(=O)NCCCC(=O)Nc1cn(C)c(C(=O)NCCC(=O)Nc2cc(C(=O)Nc3cn(C)c(C(=O)NCCC(=O)NCCOCCN4CCN(C5CCN(c6ccc(N)cc6)CC5)CC4)n3)n(C)c2)n1 [Compound B-155] | > 1000 nM |
| Cn1cc(NC(=O)c2nc(NC(=O)CCNC(=O)c3cc(NC(=O)c4nccn4C)cn3C)cn2C)cc1C(=O)NCCCC(=O)Nc1cn(C)c(C(=O)NCCC(=O)Nc2cc(C(=O)Nc3cn(C)c(C(=O)NCCC(=O)NC4CCCCC4)n3)n(C)c2)n1 [Compound B-53] | 100 to 500 nM |
| CCN(CC)CCCC[C@H](NC(=O)c1cccc(C(=O)O)c1)C(=O)NCCOCCOCCOCCNC(=O)c1nc(NC(=O)c2cc(NC(=O)CCNC(=O)c3nc(NC(=O)CCCNC(=O)c4cc(NC(=O)c5nc(NC(=O)CCNC(=O)c6cc(NC(=O)c7nccn7C)cn6C)cn5C)cn4C)cn3C)cn2C)cn1C [Compound B-221] | > 1000 nM |
| Cn1cc(NC(=O)c2nc(NC(=O)CCNC(=O)c3cc(NC(=O)c4nccn4C)cn3C)cn2C)cc1C(=O)NCCCC(=O)Nc1cn(C)c(C(=O)NCCC(=O)Nc2cc(C(=O)Nc3cn(C)c(C(=O)NCCOCCOCCOc4cccc(C(=O)O)c4)n3)n(C)c2)n1 [Compound B-214] | 500 to 1000 nM |
| Cn1cc(NC(=O)c2nc(NC(=O)CCNC(=O)c3cc(NC(=O)c4nccn4C)cn3C)cn2C)cc1C(=O)NCCCC(=O)Nc1cn(C)c(C(=O)NCCC(=O)Nc2cc(C(=O)Nc3cn(C)c(C(=O)NCCC(=O)N4CCN(C5CCN(c6ccc(N)cc6)CC5)CC4)n3)n(C)c2)n1 [Compound B-156] | > 1000 nM |
| Cn1cc(NC(=O)c2nc(NC(=O)CCNC(=O)c3cc(NC(=O)c4nccn4C)cn3C)cn2C)cc1C(=O)NCCCC(=O)Nc1cn(C)c(C(=O)NCCC(=O)Nc2cc(C(=O)Nc3cn(C)c(C(=O)NCCC(=O)NCCCCCN4CCC(C#CC#CC5CCN(Cc6ccc(C(C)(C)C)cc6)CC5)CC4)n3)n(C)c2)n1 [Compound B-178] | > 1000 nM |
| Cn1cc(NC(=O)c2nc(NC(=O)CCNC(=O)c3cc(NC(=O)c4nccn4C)cn3C)cn2C)cc1C(=O)NCCCC(=O)Nc1cn(C)c(C(=O)NCCC(=O)Nc2cc(C(=O)Nc3cn(C)c(C(=O)NCCC(=O)N4CCC(C#CC5(O)CCNCC5)CC4)n3)n(C)c2)n1 [Compound B-198] | 500 to 1000 nM |
| Cn1cc(NC(=O)c2nc(NC(=O)CCNC(=O)c3cc(NC(=O)c4nccn4C)cn3C)cn2C)cc1C(=O)NCCCC(=O)Nc1cn(C)c(C(=O)NCCC(=O)Nc2cc(C(=O)Nc3cn(C)c(C(=O)NCCC(=O)NCC#CC#CC4CCN(C(=O)OC(C)(C)C)CC4)n3)n(C)c2)n1 [Compound B-194] | > 1000 nM |
| CCCNC(=O)CCNC(=O)c1nc(NC(=O)c2cc(NC(=O)CCNC(=O)c3nc(NC(=O)CCCNC(=O)c4cc(NC(=O)c5nc(NC(=O)CCNC(=O)c6cc(NC(=O)c7nccn7C)cn6C)cn5C)cn4C)cn3C)cn2CCCCC(=O)N(CCOCCOCCOCCOC)CCOCCOCCOCCOC)cn1C [Compound B-159] | > 1000 nM |
